Experimental data reported in US8697403B2, “Process and microorganisms for production of lipids from lignocellulosic wastes or residues” (Neste Oil Oyj, priority 2010, dated 2014).

Test system: strain G009
Test: Lipase inhibition test: prevention of TAG degradation in cultivation of strain G009
Assay type: cell-based, Streptomyces albus
Conditions: G009, waste medium
Description: Also g/l values of TAGs were estimated by image analysis using Image J program. The standard curve was prepared using concentration scale from 1 g/l up to 40 g/l and the titre of lipids in the culture broth was measured against the standard curve. The whole culture broth (solid stage cultivations) or separated mycelia was extracted with an equal volume of chloroform-methanol (Clf-MeOH; 2:1). Tubes were incubated in a shaker at RT for 1 hour. After centrifugation sample was taken from the extract and analysed by TLC and/or by GC. Dry extract weight was determined by drying 1-5 ml of extract at RT for one day in air blow after which mass was determined by weighing. The mass was given as grams per 1 liter of the culture broth. The spores of the strain […] were cultivated in the medium containing the following raw materials in 1 L of tap water, pH 7: Dextrose 75 20 g, Bagasse 20 g, Biowaste from bakery and garden (1:1) 5 or 10 g, Algae 25 to 50 g, MgSO4.7 H2O 1 g, KH2PO4 1 g and CaCO3 3 g. The cultivation conditions were 28° C., 300 rpm for 11 days. After 6 days of cultivations, 0.05 g/l AgNO3 or 0.4% of TritonX100 solution containing 0.05 g/l of CaCO3. The flasks without the said supplements were considered as controls for lipase inhibition treatment study. Cultivation was continued in the same conditions for 5 days more. The samples were taken after 7, 8 and 11 days of cultivations according to the general sampling protocols used in this invention and the results of sampling are shown here. The parallel cultivations were done with two concentrations of both algae debris and biowaste and the upper row of each test condition gave a result with higher concentration of both waste fractions.

[1] = supplement added after 6 days, sample 11 day

O=[N+]([O-])[O-].[Ag+] [AgNO3]
Weight of Chloroform extract (g/l), 7 day (28° C., 300 rpm, supplement added after 6 days (0.05 g/l AgNO3 or 0.4% TritonX100 solution containing 0.05 g/l CaCO3), sample 7 day): 7.7 g/L
Quantity of TAGs g/l by Image J, 7 day (supplement added after 6 days, sample 7 day): 4.8 g/L
Quantity of TAGs g/l by Image J, 8 day (supplement added after 6 days, sample 8 day): 4.8 g/L
Quantity of TAGs g/l by Image J, 11 day [1]: 4.8 g/L
Weight of Chloroform extract (g/l), 11 day [1]: 8.5 g/L
